Assay results as given in PubChem BioAssay (NCI).
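Step 1: Grow cells in 96-well plates. Step 2: Expose to compound for 48 hours at 5 concentrations. Step 3: Interpolate endpoints linearly; if unreached, use highest concentration. TGI: concentration producing complete growth inhibition.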

Experiments:
Experiment in all cases: growth of human tumour cells (NCI), 48 h
[1] = test system: HS 578T breast
[2] = test system: OVCAR-5 ovarian
[3] = test system: SK-MEL-28 melanoma
[4] = test system: COLO 205 colon
[5] = test system: MDA-MB-231 breast
[6] = test system: SK-MEL-5 melanoma
[7] = test system: HOP-92 NSCLC
[8] = test system: NCI-H460 lung
[9] = test system: MDA-MB-435
[10] = test system: CCRF-CEM leukemia
[11] = test system: SF-539 CNS
[12] = test system: MOLT-4 leukemia
[13] = test system: HOP-62 NSCLC
[14] = test system: K-562 leukemia
[15] = test system: SF-268 CNS

Row | Structure (SMILES) | TGI [1] | TGI [2] | TGI [3] | TGI [4] | TGI [5] | TGI [6] | TGI [7] | TGI [8] | TGI [9] | TGI [10] | TGI [11] | TGI [12] | TGI [13] | TGI [14] | TGI [15]
1 | Cc1c(C(=O)c2ccccc2)[n+](=O)c2cc(Cl)c(Cl)cc2n1[O-] | 31.2 µM | 31.8 µM | 29.1 µM | 33.5 µM | 25.9 µM | 28.6 µM | 15.2 µM | 30.9 µM | 24.5 µM | 71.5 µM | 32.5 µM | 12.2 µM | 29.7 µM | 17.8 µM | 29.5 µM
2 | O=S1SC(=S)C2C=CC=NC21 (centres undefined) | 61.4 µM | 28.6 µM | > 100 µM | 40.3 µM | 42.3 µM | 53.2 µM | 37.6 µM | 37.8 µM | > 100 µM | > 100 µM | 33.3 µM | 64.9 µM | – | > 100 µM | 44.6 µM
3 | CCOC(=O)CN1C(=O)NC(C)(c2ccccc2)C1=O (centres undefined) | > 100 µM | > 100 µM | > 100 µM | > 100 µM | > 100 µM | > 100 µM | > 100 µM | – | > 100 µM | > 100 µM | > 100 µM | > 100 µM | > 100 µM | > 100 µM | > 100 µM
4 | Cn1c(=O)c2ccccc2[n+]2c(-c3cccc([N+](=O)[O-])c3)csc12 | 83.3 µM | > 100 µM | > 100 µM | > 100 µM | > 100 µM | > 100 µM | > 100 µM | > 100 µM | > 100 µM | > 100 µM | > 100 µM | > 100 µM | > 100 µM | > 100 µM | > 100 µM
5 | CC1(C)CC[C@]2(C(=O)O)CC[C@]3(C)C(=CCC4=C5C[C@H](O)[C@H](O)[C@@](C)(CO)[C@@]5(C)CC[C@]43C)[C@@H]2C1 | > 100 µM | > 100 µM | > 100 µM | 30 µM | > 100 µM | 62.8 µM | > 100 µM | 81.8 µM | > 100 µM | > 100 µM | > 100 µM | > 100 µM | > 100 µM | > 100 µM | > 100 µM
6 | COc1ccc(-c2sc(Br)c3c2C(=O)C2OC(=O)NC32)cc1OC (centres undefined) | > 100 µM | > 100 µM | – | > 100 µM | > 100 µM | > 100 µM | > 100 µM | > 100 µM | > 100 µM | > 100 µM | > 100 µM | > 100 µM | > 100 µM | > 100 µM | > 100 µM
7 | CCCCCCCCOC(=O)C12Oc3ccc(-c4ccc5c(c4O)C(O)=C4C(=O)CC(C)C(O)C4(C(=O)OCCCCCCCC)O5)c(O)c3C(O)=C1C(=O)CC(C)C2O (centres undefined) | > 100 µM | 96.2 µM | > 100 µM | 65.3 µM | 59.7 µM | 48.7 µM | 42.5 µM | > 100 µM | > 100 µM | 17.9 µM | 19.7 µM | 60.6 µM | – | 17.4 µM | > 100 µM
8 | Cc1cc(N2CCOCC2)nc2ccc(Cc3ccc4nc(N5CCOCC5)cc(C)c4c3)cc12 | > 100 µM | > 100 µM | > 100 µM | 26.8 µM | > 100 µM | 36.6 µM | > 100 µM | > 100 µM | > 100 µM | – | 71.3 µM | > 100 µM | > 100 µM | > 100 µM | > 100 µM
9 | C/C(=N\NC(=O)c1ccncc1)c1sc(-n2nc(-c3ccccc3)cc2-c2ccccc2)nc1C | > 100 µM | > 31.6 µM | > 31.6 µM | > 100 µM | > 100 µM | > 31.6 µM | > 31.6 µM | > 31.6 µM | > 31.6 µM | > 31.6 µM | > 31.6 µM | > 31.6 µM | > 31.6 µM | > 100 µM | > 100 µM
10 | CCOC(=O)c1ncn(CCc2ccc(Cl)cc2)c1C | > 100 µM | > 100 µM | > 100 µM | > 100 µM | > 100 µM | > 100 µM | > 100 µM | > 100 µM | > 100 µM | > 100 µM | > 100 µM | > 100 µM | > 100 µM | > 100 µM | > 100 µM
11 | CCN(CC)C1Oc2cc3c(cc2C(c2cc(OC)c(O)c(OC)c2)C1C)OCO3 (centres undefined) | 50.9 µM | 21.7 µM | 44.2 µM | 31.8 µM | 73.7 µM | 30.7 µM | 77.9 µM | 20.6 µM | 6.05 µM | 42.1 µM | 34.7 µM | 27.2 µM | 39.6 µM | 17.4 µM | > 100 µM
12 | COCn1cc(C2=C(C)C(=O)C(C)=C(C)C2=O)cn1 | > 100 µM | > 100 µM | > 100 µM | > 100 µM | 40.8 µM | > 100 µM | 37.5 µM | > 100 µM | 33.9 µM | 60.8 µM | > 100 µM | 42 µM | > 100 µM | 42.6 µM | 66 µM
13 | CC(O)CNC(=O)Nc1c(C(F)(F)F)cc(-c2ccccc2)[nH]c1=O (centres undefined) | > 100 µM | > 100 µM | > 100 µM | > 100 µM | > 100 µM | > 100 µM | > 100 µM | > 100 µM | > 100 µM | > 100 µM | – | > 100 µM | > 100 µM | > 100 µM | > 100 µM
14 | C=C(COCO)C(C)=O | 62.7 µM | 35.3 µM | 32 µM | 20.8 µM | 33.6 µM | 31.5 µM | 48.9 µM | 48.2 µM | 28.3 µM | 9.64 µM | 13.6 µM | 6.08 µM | > 68.5 µM | > 27 µM | 38 µM
15 | C/C(=C\COP(=O)(O)OP(=O)(O)O)CCCCCCOCc1ccccc1 | > 100 µM | > 100 µM | > 100 µM | > 100 µM | > 100 µM | > 100 µM | > 100 µM | > 100 µM | > 100 µM | > 100 µM | > 100 µM | > 100 µM | > 100 µM | > 100 µM | > 100 µM
